From US10781224B2, “Bis(oxymethyl)phosphinic acid and biogenic metal salts thereof as regulators of plant growth and development” (priority 2016, dated 2020)

Tested on: winter wheat (Vershin variety)
Assay: Winter wheat seed treatment with BHMPA salts: germinating power (length and mass of roots and sprouts)
Type: in vivo
Protocol: Experimental versions—soaking seeds in BHMPA solutions and solutions of BHMPA Ca, Mg, Na, Co, Mn, Cu, and Zn salts at 1·10^−6-1·10^−12% concentrations (doses). The studies were conducted in laboratory in Petri dishes; seed bed—two layers of filter paper. 50 seeds soaked in water (control) and in the solutions of the tested compounds (experimental) were placed into each dish. Wheat, corn, and rice seeds were exposed for one hour.
Seed germination energy and rate were calculated in percent as an arithmetic mean of the four experimental results (germination energy on the 4th day, wheat germination on the 8th day, rice and corn germination—on the 7th day). Germination was determined based on the germinating power indicators (length of the roots and sprouts and their wet and dry mass per 100 shoots).
The effect of pre-sowing seed treatment with the claimed BHMPA salts of biogenic metals was studied on winter wheat (Vershin variety), corn (Krasnodar 385 MV variety), and rice (Diamant variety).
The above data describe the seed viability only at the initial stage of germination, while the germination ability at the later stage of germination is defined by the initial germinating power. The method for the determination of the germinating power comprises measuring the height of the sprouts and primary roots, as well as the biomass and the dry mass thereof per 100 seedlings. [M. A. Kartuzova. Initial Germinating Power as Method of Biological Assessment of Seed Quality. Selection and Seed Farming, #2, 1953].

[1] = all the experiments (1·10^−6% to 1·10^−12%)
[2] = comparative study, 1·10^−12% solution

Which results are given for `O=P([O-])(CO)CO.O=P([O-])(CO)CO.[Ca+2]` [Ca-salt, Calcium BHMPA Salt]?
Length, root (1·10^−6% solution): 7.1 cm; Length, root, + % to control (1·10^−6% solution): 27%; Length, sprout (1·10^−6% solution): 6.9 cm; Length, sprout, + % to control (1·10^−6% solution): 19%; Mass, dry, root (1·10^−6% solution): 0.45 g/100 plantlings; Mass, dry, root, + % to control (1·10^−6% solution): 41%; Mass, dry, sprout (1·10^−6% solution): 0.47 g/100 plantlings; Mass, dry, sprout, + % to control (1·10^−6% solution): 9%; Mass, wet, root (1·10^−6% solution): 4.16 g/100 plantlings; Mass, wet, root, + % to control (1·10^−6% solution): 12%; Mass, wet, sprout (1·10^−6% solution): 5.32 g/100 plantlings; Mass, wet, sprout, + % to control (1·10^−6% solution): 5%; Length, root (1·10^−7% solution): 7.4 cm; Length, root, + % to control (1·10^−7% solution): 34%; Length, sprout (1·10^−7% solution): 7.4 cm; Mass, dry, root (1·10^−7% solution): 0.47 g/100 plantlings; Mass, dry, root, + % to control (1·10^−7% solution): 47%; Mass, dry, sprout (1·10^−7% solution): 0.55 g/100 plantlings; Mass, dry, sprout, + % to control (1·10^−7% solution): 30%; Mass, wet, root (1·10^−7% solution): 4.89 g/100 plantlings; Mass, wet, root, + % to control (1·10^−7% solution): 32%; Mass, wet, sprout (1·10^−7% solution): 5.57 g/100 plantlings; Mass, wet, sprout, + % to control (1·10^−7% solution): 10%; Length, root (1·10^−8% solution): 6.5 cm; Length, root, + % to control (1·10^−8% solution): 18%; Length, sprout (1·10^−8% solution): 6.4 cm; Length, sprout, + % to control (1·10^−8% solution): 10%; Mass, dry, root (1·10^−8% solution): 0.39 g/100 plantlings; Mass, dry, root, + % to control (1·10^−8% solution): 22%; Mass, dry, sprout (1·10^−8% solution): 0.45 g/100 plantlings; Mass, dry, sprout, + % to control (1·10^−8% solution): 5%; Mass, wet, root (1·10^−8% solution): 4.08 g/100 plantlings; Mass, wet, root, + % to control (1·10^−8% solution): 10%; Mass, wet, sprout (1·10^−8% solution): 5.32 g/100 plantlings; Mass, wet, sprout, + % to control (1·10^−8% solution): 5%; Length, root (1·10^−9% solution): 6.5 cm; Length, root, + % to control (1·10^−9% solution): 18%; Length, sprout (1·10^−9% solution): 6.5 cm; Length, sprout, + % to control (1·10^−9% solution): 12%; Mass, dry, root (1·10^−9% solution): 0.41 g/100 plantlings; Mass, dry, root, + % to control (1·10^−9% solution): 28%; Mass, dry, sprout (1·10^−9% solution): 0.48 g/100 plantlings; Mass, dry, sprout, + % to control (1·10^−9% solution): 12%; Mass, wet, root (1·10^−9% solution): 4.20 g/100 plantlings; Mass, wet, root, + % to control (1·10^−9% solution): 13%; Mass, wet, sprout (1·10^−9% solution): 5.36 g/100 plantlings; Mass, wet, sprout, + % to control (1·10^−9% solution): 5.5%; Length, root (1·10^−10% solution): 6.6 cm; Length, root, + % to control (1·10^−10% solution): 20%; Length, sprout (1·10^−10% solution): 6.5 cm; Length, sprout, + % to control (1·10^−10% solution): 12%; Mass, dry, root (1·10^−10% solution): 0.45 g/100 plantlings; Mass, dry, root, + % to control (1·10^−10% solution): 41%; Mass, dry, sprout (1·10^−10% solution): 0.53 g/100 plantlings; Mass, dry, sprout, + % to control (1·10^−10% solution): 23%; Mass, wet, root (1·10^−10% solution): 4.34 g/100 plantlings; Mass, wet, root, + % to control (1·10^−10% solution): 17%; Mass, wet, sprout (1·10^−10% solution): 5.41 g/100 plantlings; Mass, wet, sprout, + % to control (1·10^−10% solution): 6.5%; Length, root (1·10^−11% solution): 7.2 cm; Length, root, + % to control (1·10^−11% solution): 31%; Length, sprout (1·10^−11% solution): 6.9 cm; Length, sprout, + % to control (1·10^−11% solution): 19%; Mass, dry, root (1·10^−11% solution): 0.46 g/100 plantlings; Mass, dry, root, + % to control (1·10^−11% solution): 44%; Mass, dry, sprout (1·10^−11% solution): 0.54 g/100 plantlings; Mass, dry, sprout, + % to control (1·10^−11% solution): 25.5%; Mass, wet, root (1·10^−11% solution): 4.70 g/100 plantlings; Mass, wet, root, + % to control (1·10^−11% solution): 27%; Mass, wet, sprout (1·10^−11% solution): 5.50 g/100 plantlings; Mass, wet, sprout, + % to control (1·10^−11% solution): 8%; Length, root (1·10^−12% solution): 7.4 cm; Length, root, + % to control (1·10^−12% solution): 34%; Length, sprout (1·10^−12% solution): 7.9 cm; Length, sprout, + % to control (1·10^−12% solution): 36%; Mass, dry, root (1·10^−12% solution): 0.48 g/100 plantlings; Mass, dry, root, + % to control (1·10^−12% solution): 50%; Mass, dry, sprout (1·10^−12% solution): 0.59 g/100 plantlings; Mass, dry, sprout, + % to control (1·10^−12% solution): 37%; Mass, wet, root (1·10^−12% solution): 5.19 g/100 plantlings; Mass, wet, root, + % to control (1·10^−12% solution): 40%; Mass, wet, sprout (1·10^−12% solution): 6.55 g/100 plantlings; Mass, wet, sprout, + % to control (1·10^−12% solution): 29%; increase in mass of sprouts [1]: 5%-50%; increase in size of sprouts [1]: 10%-36%; Length, root [2]: 9.7 cm; Length, root, + % to control [2]: 11%; Length, sprout [2]: 6.4 cm; Length, sprout, + % to control [2]: 3%; Mass, dry, root [2]: 0.66 g/100 plantlings; Mass, dry, root, + % to control [2]: 6%; Mass, dry, sprout [2]: 0.54 g/100 plantlings; Mass, dry, sprout, + % to control [2]: 6%; Mass, wet, root [2]: 5.03 g/100 plantlings; Mass, wet, root, + % to control [2]: 40%; Mass, wet, sprout [2]: 4.88 g/100 plantlings; Mass, wet, sprout, + % to control [2]: 23%
